This is an account of results in PMC7180948, “New Insights into 4-Anilinoquinazolines as Inhibitors of Cardiac Troponin I–Interacting Kinase (TNNi3K)” (Molecules, 2020).

Common to all, as to assay: biochemical
Common to all, as to set-up: KINOMEscan competition binding panel (Eurofins DiscoverX), single concentration, % inhibition
Conditions in all cases: read-out: 7 at 1 µM % inhibition

The target in assay [1] is AAK1 (Homo sapiens, UniProt Q2M2I8). An outline of the steps: (§1)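 Kinome-wide profiling (KINOMEscan, >400 human kinases) was run at 1 µM compound.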
Assay [2] concerns the target T1, ABL1(F317I)-nonphosphorylated (Homo sapiens, UniProt P00519, F317I).
T1 construct: nonphosphorylated
An outline of the steps: as §1

Assay [3] has as its target T2, ABL1(F317L)-phosphorylated (Homo sapiens, UniProt P00519, F317L).
T2 construct: phosphorylated
An outline of the steps: as §1

The target of assay [4] is ANKK1 (Homo sapiens, UniProt Q8NFD2). An outline of the steps:
as §1

Assay [5] has as its target T3, CDK4-cyclinD3 (Homo sapiens, UniProt P11802).
T3 construct: cyclinD3
In short, it runs like this: as §1

Assay [6] has as its target DYRK2 (Homo sapiens, UniProt Q92630). In short, it runs like this: as §1
Assay [7] concerns the target EPHA3 (Homo sapiens, UniProt P29320). In short, it runs like this: as §1
The target in assay [8] is ERN1 (Homo sapiens, UniProt O75460). In short, it runs like this: as §1
Assay [9] has as its target FER (Homo sapiens, UniProt P16591). In short, it runs like this:
as §1

Assay [10] deals with HUNK (Homo sapiens, UniProt P57058). An outline of the steps: as §1
The target of assay [11] is MARK2 (Homo sapiens, UniProt Q7KZI7). An outline of the steps: as §1
In assay [12] the target is MARK4 (Homo sapiens, UniProt Q96L34). An outline of the steps:
as §1

Assay [13] concerns the target MELK (Homo sapiens, UniProt Q14680). An outline of the steps: as §1
For assay [14], the target named is T4, MLK1 (Homo sapiens, UniProt P80192).
T4 construct: gene MAP3K9
An outline of the steps:
as §1

The target in assay [15] is MYO3B (Homo sapiens, UniProt Q8WXR4). In short, it runs like this: as §1
For assay [16], the target named is T5, PCTK1 (Homo sapiens, UniProt Q00536).
T5 construct: gene CDK16
In short, it runs like this:
as §1

Assay [17] deals with PIK3CA(E545K) (Homo sapiens, UniProt P42336, E545K). An outline of the steps: as §1
Assay [18] deals with PIK3CA(M1043I) (Homo sapiens, UniProt P42336, M1043I). An outline of the steps: as §1
Assay [19] concerns the target PKMYT1 (Homo sapiens, UniProt Q99640). An outline of the steps: as §1
Assay [20] concerns the target RET(M918T) (Homo sapiens, UniProt P07949, M918T). In short, it runs like this: as §1
The target in assay [21] is T6, SIK (Homo sapiens, UniProt P57059).
T6 construct: gene SIK1
In short, it runs like this: as §1

The target of assay [22] is TAOK2 (Homo sapiens, UniProt Q9UL54). In short, it runs like this:
as §1

Assay [23] addresses TSSK3 (Homo sapiens, UniProt Q96PN8). In short, it runs like this:
as §1

Assay [24] has as its target T7, TYK2(JH2domain-pseudokinase) (Homo sapiens, UniProt P29597).
T7 construct: JH2domain-pseudokinase
An outline of the steps:
as §1

TAOK2, sequence (Q9UL54 whole entry): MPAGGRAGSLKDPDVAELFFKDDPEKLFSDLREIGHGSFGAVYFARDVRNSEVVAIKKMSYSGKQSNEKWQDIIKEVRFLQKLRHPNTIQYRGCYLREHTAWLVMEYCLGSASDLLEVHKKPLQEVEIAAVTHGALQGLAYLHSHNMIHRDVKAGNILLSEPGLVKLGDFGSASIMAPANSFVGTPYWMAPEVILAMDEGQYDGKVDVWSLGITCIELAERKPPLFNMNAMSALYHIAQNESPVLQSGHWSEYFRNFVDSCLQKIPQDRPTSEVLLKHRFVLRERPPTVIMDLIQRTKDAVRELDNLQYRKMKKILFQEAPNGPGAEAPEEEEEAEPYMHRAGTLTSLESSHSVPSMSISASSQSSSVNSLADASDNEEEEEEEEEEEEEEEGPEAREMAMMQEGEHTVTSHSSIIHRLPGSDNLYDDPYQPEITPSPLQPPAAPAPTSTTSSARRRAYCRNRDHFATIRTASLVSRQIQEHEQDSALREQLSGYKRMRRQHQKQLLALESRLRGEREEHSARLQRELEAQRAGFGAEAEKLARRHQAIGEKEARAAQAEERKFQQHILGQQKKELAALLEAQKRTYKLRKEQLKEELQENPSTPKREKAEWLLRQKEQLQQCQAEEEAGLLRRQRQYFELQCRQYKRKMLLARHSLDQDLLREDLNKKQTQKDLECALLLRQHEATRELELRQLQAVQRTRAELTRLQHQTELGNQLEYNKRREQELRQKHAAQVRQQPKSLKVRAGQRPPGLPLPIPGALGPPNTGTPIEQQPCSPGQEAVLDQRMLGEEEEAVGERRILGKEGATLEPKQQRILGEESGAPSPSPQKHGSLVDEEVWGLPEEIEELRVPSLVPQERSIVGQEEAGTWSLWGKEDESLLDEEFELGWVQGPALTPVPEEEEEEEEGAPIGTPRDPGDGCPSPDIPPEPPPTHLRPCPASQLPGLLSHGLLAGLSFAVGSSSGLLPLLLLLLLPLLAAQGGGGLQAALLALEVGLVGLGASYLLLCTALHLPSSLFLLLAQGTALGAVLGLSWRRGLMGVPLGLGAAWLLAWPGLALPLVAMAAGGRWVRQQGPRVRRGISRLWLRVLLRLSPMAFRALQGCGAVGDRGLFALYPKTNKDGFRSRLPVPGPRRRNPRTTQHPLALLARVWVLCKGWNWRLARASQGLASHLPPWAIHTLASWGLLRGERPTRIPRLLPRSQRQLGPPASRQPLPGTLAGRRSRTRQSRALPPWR
TSSK3, sequence (Q96PN8 whole entry): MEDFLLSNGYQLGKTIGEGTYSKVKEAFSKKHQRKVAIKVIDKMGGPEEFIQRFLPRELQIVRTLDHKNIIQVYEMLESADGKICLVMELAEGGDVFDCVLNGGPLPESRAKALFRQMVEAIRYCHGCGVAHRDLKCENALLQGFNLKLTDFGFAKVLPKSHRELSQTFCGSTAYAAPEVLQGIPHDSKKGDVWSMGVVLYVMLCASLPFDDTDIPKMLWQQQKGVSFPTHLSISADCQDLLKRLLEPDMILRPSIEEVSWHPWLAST
T7 sequence (P29597 whole entry): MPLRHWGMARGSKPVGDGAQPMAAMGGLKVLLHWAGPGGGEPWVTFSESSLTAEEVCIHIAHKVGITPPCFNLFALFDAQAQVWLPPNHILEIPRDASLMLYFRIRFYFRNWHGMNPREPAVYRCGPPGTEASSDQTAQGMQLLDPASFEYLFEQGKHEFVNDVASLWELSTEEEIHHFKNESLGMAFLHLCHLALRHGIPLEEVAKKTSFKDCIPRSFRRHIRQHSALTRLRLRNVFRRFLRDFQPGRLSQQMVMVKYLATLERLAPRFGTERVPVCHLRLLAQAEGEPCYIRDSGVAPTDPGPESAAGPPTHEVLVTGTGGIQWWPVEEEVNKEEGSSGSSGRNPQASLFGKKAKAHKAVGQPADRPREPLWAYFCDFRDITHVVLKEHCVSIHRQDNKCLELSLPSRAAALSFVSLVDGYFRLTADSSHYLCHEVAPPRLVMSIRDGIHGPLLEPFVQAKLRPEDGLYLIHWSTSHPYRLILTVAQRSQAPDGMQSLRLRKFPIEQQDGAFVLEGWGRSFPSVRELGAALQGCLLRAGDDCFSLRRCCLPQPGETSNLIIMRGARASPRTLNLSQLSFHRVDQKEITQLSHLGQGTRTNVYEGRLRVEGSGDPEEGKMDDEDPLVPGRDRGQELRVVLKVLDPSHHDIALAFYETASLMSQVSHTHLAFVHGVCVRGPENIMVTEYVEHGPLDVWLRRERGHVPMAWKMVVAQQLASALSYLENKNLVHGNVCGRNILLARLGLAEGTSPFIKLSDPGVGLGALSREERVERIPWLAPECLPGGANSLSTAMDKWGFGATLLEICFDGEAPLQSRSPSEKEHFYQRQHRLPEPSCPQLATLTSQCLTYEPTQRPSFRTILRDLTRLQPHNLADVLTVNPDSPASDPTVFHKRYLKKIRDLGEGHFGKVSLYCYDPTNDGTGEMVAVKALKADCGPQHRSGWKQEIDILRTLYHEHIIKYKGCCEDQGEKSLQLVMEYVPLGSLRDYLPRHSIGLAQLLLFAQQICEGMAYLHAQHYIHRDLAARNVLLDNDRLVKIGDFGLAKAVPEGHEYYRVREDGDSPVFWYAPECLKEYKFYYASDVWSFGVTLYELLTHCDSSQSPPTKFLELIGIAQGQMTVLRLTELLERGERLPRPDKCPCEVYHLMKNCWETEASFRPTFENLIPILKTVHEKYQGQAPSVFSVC
T6 sequence (P57059 whole entry): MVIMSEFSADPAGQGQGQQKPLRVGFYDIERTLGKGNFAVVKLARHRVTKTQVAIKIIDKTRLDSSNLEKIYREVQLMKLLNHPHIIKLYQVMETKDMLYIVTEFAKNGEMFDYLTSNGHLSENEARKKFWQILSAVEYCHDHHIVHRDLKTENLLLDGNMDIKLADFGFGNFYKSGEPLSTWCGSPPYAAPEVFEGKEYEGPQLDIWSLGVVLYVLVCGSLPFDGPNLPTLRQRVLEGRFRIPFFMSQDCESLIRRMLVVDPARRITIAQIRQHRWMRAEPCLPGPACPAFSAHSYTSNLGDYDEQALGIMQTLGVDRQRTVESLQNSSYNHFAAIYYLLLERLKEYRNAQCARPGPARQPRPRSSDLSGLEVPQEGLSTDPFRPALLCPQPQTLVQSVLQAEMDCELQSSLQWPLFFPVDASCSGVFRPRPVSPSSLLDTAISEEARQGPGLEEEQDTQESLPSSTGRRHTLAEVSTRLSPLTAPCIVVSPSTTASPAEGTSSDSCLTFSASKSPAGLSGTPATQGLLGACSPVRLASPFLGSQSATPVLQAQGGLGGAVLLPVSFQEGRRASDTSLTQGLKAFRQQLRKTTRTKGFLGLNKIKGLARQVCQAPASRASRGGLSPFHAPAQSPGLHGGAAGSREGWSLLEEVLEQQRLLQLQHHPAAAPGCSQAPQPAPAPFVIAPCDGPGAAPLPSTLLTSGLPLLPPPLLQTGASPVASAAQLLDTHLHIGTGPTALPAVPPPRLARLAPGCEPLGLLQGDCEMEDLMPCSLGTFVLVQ
T5 sequence (Q00536 whole entry): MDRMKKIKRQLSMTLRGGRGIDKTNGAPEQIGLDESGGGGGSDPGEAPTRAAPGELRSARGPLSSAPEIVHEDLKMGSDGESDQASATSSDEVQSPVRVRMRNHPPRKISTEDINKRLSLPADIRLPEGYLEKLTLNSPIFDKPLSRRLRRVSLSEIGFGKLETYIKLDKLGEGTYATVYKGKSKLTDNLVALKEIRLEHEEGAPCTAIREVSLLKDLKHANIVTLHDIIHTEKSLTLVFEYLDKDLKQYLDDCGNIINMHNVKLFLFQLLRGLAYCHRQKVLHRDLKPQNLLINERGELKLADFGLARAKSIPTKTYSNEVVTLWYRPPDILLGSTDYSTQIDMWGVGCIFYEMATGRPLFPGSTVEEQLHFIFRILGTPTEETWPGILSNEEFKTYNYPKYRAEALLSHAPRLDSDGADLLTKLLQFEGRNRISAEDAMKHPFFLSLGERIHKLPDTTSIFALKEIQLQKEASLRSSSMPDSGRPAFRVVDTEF
RET(M918T), sequence (P07949 whole entry M918T): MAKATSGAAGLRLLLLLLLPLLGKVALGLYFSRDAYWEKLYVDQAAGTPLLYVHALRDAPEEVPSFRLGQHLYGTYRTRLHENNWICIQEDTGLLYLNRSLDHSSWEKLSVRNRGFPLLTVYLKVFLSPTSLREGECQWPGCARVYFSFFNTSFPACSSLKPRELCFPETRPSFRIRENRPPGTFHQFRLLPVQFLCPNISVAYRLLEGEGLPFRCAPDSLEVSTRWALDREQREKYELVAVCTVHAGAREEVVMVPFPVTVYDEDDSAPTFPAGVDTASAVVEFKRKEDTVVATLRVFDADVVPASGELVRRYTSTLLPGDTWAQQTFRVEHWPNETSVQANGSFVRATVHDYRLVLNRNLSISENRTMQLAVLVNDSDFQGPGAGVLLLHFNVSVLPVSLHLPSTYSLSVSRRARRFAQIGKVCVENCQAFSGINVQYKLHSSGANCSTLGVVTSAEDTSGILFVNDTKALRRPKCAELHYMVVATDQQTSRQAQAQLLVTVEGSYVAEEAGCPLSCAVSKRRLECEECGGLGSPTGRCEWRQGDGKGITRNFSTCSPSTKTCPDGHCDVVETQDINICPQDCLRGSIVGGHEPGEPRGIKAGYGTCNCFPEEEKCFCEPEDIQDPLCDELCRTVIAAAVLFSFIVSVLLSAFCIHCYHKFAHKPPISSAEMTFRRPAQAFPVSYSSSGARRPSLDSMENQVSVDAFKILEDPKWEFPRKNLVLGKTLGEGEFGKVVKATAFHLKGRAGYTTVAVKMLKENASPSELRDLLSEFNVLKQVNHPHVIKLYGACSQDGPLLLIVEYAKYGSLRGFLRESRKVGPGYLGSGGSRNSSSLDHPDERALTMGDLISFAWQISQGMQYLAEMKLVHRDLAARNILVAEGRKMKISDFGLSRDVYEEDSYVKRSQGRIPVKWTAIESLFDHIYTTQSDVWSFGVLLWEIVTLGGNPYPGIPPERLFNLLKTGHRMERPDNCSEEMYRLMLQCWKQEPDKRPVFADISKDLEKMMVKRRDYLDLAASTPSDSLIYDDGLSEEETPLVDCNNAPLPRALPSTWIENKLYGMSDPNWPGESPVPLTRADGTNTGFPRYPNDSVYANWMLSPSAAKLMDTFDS

Take `CNS(=O)(=O)c1ccc(N(C)C)c(Nc2ncnc3cc(OC)c(OC)cc23)c1` [compound 7, 3-((6,7-dimethoxyquinazolin-4-yl)amino)-4-(dimethylamino)-N-methylbenzenesulfonamide]: the inhibition at 1 µM in assay [1] was found to be 0%; in assay [2], 1%; in assay [3], 0%; in [4] it was 19%; in assay [5] it was 37%; in assay [6], 0%. Moreover, the inhibition at 1 µM in [7] is 5%; in assay [8] it was 0%; in [9], 0%; in [10], 0%; in [11] it was 0%; in assay [12] it was 2%. Besides, the inhibition at 1 µM was determined as 17% in assay [13]; 10% in assay [14]; 0% in assay [15]; 13% in [16]; 5% in assay [17]; 29% in assay [18]. Also, the inhibition at 1 µM in assay [19] is 0%; in assay [20], 0%; in assay [21], 17%; in assay [22] it was 20%; in [23] it was 0%; in assay [24] it was 0%.

For orientation: inhibition means the relative decrease from the control value, in per cent.
